In PubChem BioAssay AID1963866 (Molecular Pharmacology Branch, DTP, NCI, 2024):

System: PDC KRAS tumor spheroids with HUVEC/MSC, viability
Assay: Anticancer human tumor 349418-098-R-PDC patient-derived lung adenocarcinoma cell line growth inhibition [KRAS2]
Conditions: for IC50: curve of first compound; for viability, T/C: stronger effect = lower value
Method in brief: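 KRAS-mutant tumor cells were grown as spheroids with HUVEC endothelial cells and human MSCs as stroma. Targeted agents were tested alone and with KRAS pathway inhibitors. Doses started at or near clinical Cmax, or 10 microM, descending half-log.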

[1] = second compound 0.1 µM, first compound 0.0316 µM
[2] = second compound 0.1 µM, first compound 0.1 µM
[3] = second compound 0.1 µM, first compound 0.316 µM
[4] = second compound 0.1 µM, first compound 1 µM
[5] = second compound 0.1 µM, first compound 3.16 µM
[6] = second compound 0.1 µM, first compound 10 µM
[7] = second compound 0.316 µM, first compound 0.0316 µM
[8] = second compound 0.316 µM, first compound 0.1 µM
[9] = second compound 0.316 µM, first compound 0.316 µM
[10] = second compound 0.316 µM, first compound 1 µM
[11] = second compound 0.316 µM, first compound 3.16 µM
[12] = second compound 0.316 µM, first compound 10 µM
[13] = second compound 1 µM, first compound 0.0316 µM
[14] = second compound 1 µM, first compound 0.1 µM
[15] = second compound 1 µM, first compound 0.316 µM
[16] = second compound 1 µM, first compound 1 µM
[17] = second compound 1 µM, first compound 3.16 µM
[18] = second compound 1 µM, first compound 10 µM
[19] = second compound 3.16 µM, first compound 0.0316 µM
[20] = second compound 3.16 µM, first compound 0.1 µM
[21] = second compound 3.16 µM, first compound 0.316 µM
[22] = second compound 3.16 µM, first compound 1 µM
[23] = second compound 3.16 µM, first compound 3.16 µM
[24] = second compound 3.16 µM, first compound 10 µM
[25] = second compound 10 µM, first compound 0.0316 µM
[26] = second compound 10 µM, first compound 0.1 µM
[27] = second compound 10 µM, first compound 0.316 µM
[28] = second compound 10 µM, first compound 1 µM
[29] = second compound 10 µM, first compound 3.16 µM
[30] = second compound 10 µM, first compound 10 µM
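Also: spheroids exposed to compounds for seven days before readout.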

| SMILES | IC50 (second compound 0.1 µM) [nM] | IC50 (second compound 0.316 µM) [nM] | IC50 (second compound 1 µM) [nM] | IC50 (second compound 3.16 µM) [nM] | IC50 (second compound 10 µM) [nM] | viability, T/C [1] [%] | viability, T/C [2] [%] | viability, T/C [3] [%] | viability, T/C [4] [%] | viability, T/C [5] [%] | viability, T/C [6] [%] | viability, T/C [7] [%] | viability, T/C [8] [%] | viability, T/C [9] [%] | viability, T/C [10] [%] | viability, T/C [11] [%] | viability, T/C [12] [%] | viability, T/C [13] [%] | viability, T/C [14] [%] | viability, T/C [15] [%] | also measured |
| --- | --- | --- | --- | --- | --- | --- | --- | --- | --- | --- | --- | --- | --- | --- | --- | --- | --- | --- | --- | --- | --- |
| COc1cc(Nc2ncc3c(n2)-c2ccc(Cl)cc2C(c2c(F)cccc2OC)=NC3)ccc1C(=O)O + COc1cc2nc(C)nc(NC(C)c3cc(N)cc(C(F)(F)F)c3)c2cc1OC1CCOC1 | 47.4 | 36 | < 31.6 | < 31.6 | < 31.6 | 60 | 30.7 | 31.8 | 34.2 | 23.3 | 23.8 | 52.8 | 27.4 | 30.8 | 26.5 | 25.4 | 23.4 | 48.5 | 31.2 | 36.2 | viability, T/C [16]: 33%; viability, T/C [17]: 28.3%; viability, T/C [18]: 20.5%; viability, T/C [19]: 45.8%; viability, T/C [20]: 29.4%; viability, T/C [21]: 28%; viability, T/C [22]: 25.5%; viability, T/C [23]: 18.4%; viability, T/C [24]: 19.1%; viability, T/C [25]: 16.7%; viability, T/C [26]: 22%; viability, T/C [27]: 12.4%; viability, T/C [28]: 9.24%; viability, T/C [29]: 16.1%; viability, T/C [30]: 6% |
| COc1cc2nccc(Oc3ccc(NC(=O)C4(C(=O)Nc5ccc(F)cc5)CC4)cc3)c2cc1OC + COc1cc2nc(C)nc(NC(C)c3cc(N)cc(C(F)(F)F)c3)c2cc1OC1CCOC1 | 936 | 732 | 656 | 611 | < 31.6 | 111 | 107 | 81.8 | 9.71 | 21.9 | 113 | 102 | 97.3 | 71.2 | 8.51 | 15.3 | 103 | 109 | 97.7 | 65.4 | viability, T/C [16]: 8.96%; viability, T/C [17]: 12.7%; viability, T/C [18]: 102%; viability, T/C [19]: 98.4%; viability, T/C [20]: 85.6%; viability, T/C [21]: 72.6%; viability, T/C [22]: 6.65%; viability, T/C [23]: 2.1%; viability, T/C [24]: 90.6%; viability, T/C [25]: 44.6%; viability, T/C [26]: 11.7%; viability, T/C [27]: 7.86%; viability, T/C [28]: 0.78%; viability, T/C [29]: 0.14%; viability, T/C [30]: 61.9% |
| O=C(c1cc(Cc2n[nH]c(=O)c3ccccc23)ccc1F)N1CCN(C(=O)C2CC2)CC1 + COc1cc2nc(C)nc(NC(C)c3cc(N)cc(C(F)(F)F)c3)c2cc1OC1CCOC1 | 5370 | 4260 | 4960 | 1940 | 87.3 | 89.4 | 96 | 85.9 | 85.6 | 64.8 | 32.3 | 92.7 | 94.8 | 77.5 | 87.6 | 57.8 | 27.5 | 110 | 105 | 75.8 | viability, T/C [16]: 93.8%; viability, T/C [17]: 61.5%; viability, T/C [18]: 30.2%; viability, T/C [19]: 93.2%; viability, T/C [20]: 76.6%; viability, T/C [21]: 80.5%; viability, T/C [22]: 60.1%; viability, T/C [23]: 41.1%; viability, T/C [24]: 23.8%; viability, T/C [25]: 89.9%; viability, T/C [26]: 36.1%; viability, T/C [27]: 35.3%; viability, T/C [28]: 22.2%; viability, T/C [29]: 10.2%; viability, T/C [30]: 9.73% |
